According to US20150291507A1, “PANTHENYL DOCOSAHEXAENEOATE AND ITS USE FOR TREATING AND PREVENTING CARDIOVASCULAR DISEASES” (PIERRE FABRE MEDICAMENT, priority 2010, published 2015):

System: atrial refractory period
Test: Atrial refractory period in the anesthetized pig (electrical stimulation S1/S2, left atrium)
Format: in vivo, pig (male Landrace)
Method: The study was carried out on male Landrace pigs (20-25 kg). Anesthesia was maintained with isoflurane (0.5-3% of lung tidal volume). Number of respirations and tidal volume were adjusted so as to maintain blood gases within physiological limits. A left lateral thoracotomy was performed in the fourth intercostal space and the pericardium was opened. Polyethylene-filled catheters were introduced into the nearest thoracic artery to measure arterial pressure during the experiment and in the left saphenous vein to administer the active products or a control carrier. An atrial electrocardiogram (ECG) was continuously recorded, with three electrodes placed and sutured in the epicardium and the fourth serving as mass and placed in the thoracic muscles. Thus, the ECG provides information on atrial activity. Two bipolar electrodes were also placed in the left atrium at an interval of 0.3 cm and were maintained by fishing hooks. Electrical stimulations were carried out by a stimulator (DS 8000, WPI). […] The panthenyl docosahexaenoate of formula A (quantity: 10+10 mg/kg, n=4) was administered in the form of a bolus over 1 minute and then allowed to diffuse for 40 minutes. […]

**Q.** For `CC/C=C\C/C=C\C/C=C\C/C=C\C/C=C\C/C=C\CCC(=O)OCCCNC(=O)C(O)C(C)(C)CO` (stereo in doubt) [panthenyl docosahexaenoate of formula A, 3-[(2R)-2,4-dihydroxy-3,3-dimethylbutanamido]propyl(4Z,7Z,10Z,13Z,16Z,19Z)-docosa-4,7,10,13,16,19-hexaenoate], which “increase in atrial refractory periods (ARPs)” value (intravenous 10 mg/kg + 10 mg/kg (bolus over 1 minute, then 40 minutes), anesthetized male Landrace pigs, n=4, p<0.001, placebo -4±3 ms) is on record?
**A.** 19 ± 2 ms

**Q.** What about the “activity on atrial refractory period compared with the panthenol diester” value (same formulation and administration, anesthetized pigs, FIG. 1) of the same compound?
**A.** significantly more active than the panthenol diester
